Results reported in the supplement of paper PMC7840683.
Structures can show the parent of a compound that is named as a salt. ± gives the standard deviation of the averaged measurements.

Test system: HepaRG
Experiment: LDH release cytotoxicity, % of total lysis control; higher = more cytotoxic
Details: 48 h
How it was run: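 The CytoTox-ONE kit was used to read LDH in 50 µL spent medium as resorufin fluorescence on a Tecan Safire, with 0.1% Triton X added to total lysis wells. Beforehand, single-lot HepaRG cells on collagen I-coated 96-well plates had been exposed in duplicate for 48 h to eight-point half-log series (top 100 µM) in serum-free induction medium containing 0.5% DMSO. Percent cytotoxicity was normalized against on-plate vehicle and total lysis controls and averaged over duplicates.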

Row | SMILES | LDH release cytotoxicity (0.03162 µM) | LDH release cytotoxicity (0.1 µM) | LDH release cytotoxicity (0.3162278 µM) | LDH release cytotoxicity (1 µM) | LDH release cytotoxicity (3.16228 µM) | LDH release cytotoxicity (10 µM) | LDH release cytotoxicity (31.6228 µM) | LDH release cytotoxicity (100 µM) | further results
1 | CCCCOC(=O)C(C)Oc1ccc(Oc2ccc(C(F)(F)F)cn2)cc1 (centres undefined) [Fluazifop-P-butyl] | – | – | – | – | – | – | – | – | LDH release cytotoxicity (0.0317809 µM): -1.34 ± 1.1%; LDH release cytotoxicity (0.1005 µM): -0.704 ± 2.2%; LDH release cytotoxicity (0.317809 µM): -1.02 ± 2.1%; LDH release cytotoxicity (1.005 µM): -0.805 ± 2.7%; LDH release cytotoxicity (3.17809 µM): -1.3 ± 1.6%; LDH release cytotoxicity (10.05 µM): -0.416 ± 3.4%; LDH release cytotoxicity (31.7809 µM): 0.0852 ± 1.8%; LDH release cytotoxicity (100.5 µM): -0.23 ± 1.1%
2 | [O-][n+]1ccccc1S [Sodium (2-pyridylthio)-N-oxide] | -1.41 ± 0.6% | -0.73 ± 0.66% | -1.67 ± 0.53% | -0.357 ± 1.3% | -1.51 ± 0.23% | -1.01 ± 0.22% | -0.585 ± 0.072% | 1.58 ± 0.14% | –
3 | O=P(Oc1ccccc1)(Oc1ccccc1)Oc1ccccc1 [Triphenyl phosphate] | 0.948 ± 2% | -1.27 ± 1.3% | -1.47 ± 0.34% | -1.41 ± 0.43% | -0.353 ± 0.53% | 0.138 ± 0.49% | 2.03 ± 0.5% | 27.1 ± 4.3% | –
4 | N#Cc1ccc(N(CC(N)=O)CC(F)(F)F)cc1C(F)(F)F | -0.784 ± 0.86% | -0.777 ± 1.4% | -1.03 ± 1.4% | -1.38 ± 0.065% | -0.891 ± 1.1% | 0.346 ± 0.016% | -0.599 ± 0.47% | -0.34 ± 0.95% | –
5 | CC(C)(O)c1ccc(CNC(=O)c2cccnc2Oc2ccc3nonc3c2)cc1 | -0.138 ± 0.4% | -0.0235 ± 1.2% | -1.43 ± 0.089% | -1.1 ± 0.77% | -0.724 ± 0.6% | -0.975 ± 0.052% | -1.98 ± 0.84% | -2.05 ± 0.18% | –
6 | CC(C)(C)C(O)C(=Cc1ccc(Cl)cc1Cl)n1cncn1 (centres undefined) [Diniconazole] | -0.57 ± 1.1% | -1.77 ± 1.1% | -0.96 ± 0.019% | -0.38 ± 0.69% | 0.433 ± 0.38% | -0.346 ± 1.4% | 0.723 ± 1.1% | 1.41 ± 0.97% | –
7 | CN(C)NC(=O)CCC(=O)O [Daminozide] | -1.88 ± 0.43% | -1.67 ± 0.13% | -1.27 ± 0.85% | -0.212 ± 2.1% | -1.11 ± 0.04% | -0.0868 ± 1% | 0.553 ± 0.48% | 1.58 ± 0.84% | –
8 | c1cc2ccc3cccc4ccc(c1)c2c34 [Pyrene] | 0.277 ± 0.94% | -1.34 ± 0.14% | -1.54 ± 0.5% | -0.813 ± 0.25% | -0.783 ± 0.011% | -0.0329 ± 0.0016% | -0.764 ± 0.4% | -0.178 ± 0.085% | –
9 | COc1cc(-c2ccc(N)c(OC)c2)ccc1N [3,3'-Dimethoxybenzidine dihydrochloride] | -1.44 ± 0.28% | -1.17 ± 0.44% | -1.43 ± 0.26% | -2.08 ± 0.059% | -1.15 ± 0.23% | -0.317 ± 0.23% | 0.438 ± 1% | 3.4 ± 0.6% | –
10 | O=C(Nc1ccc2[nH]ccc2c1)c1cc2cc(F)ccc2n1Cc1cccc(F)c1 | – | – | – | – | – | – | – | – | LDH release cytotoxicity (0.02625 µM): -0.0757 ± 2.2%; LDH release cytotoxicity (0.083 µM): -0.934 ± 1.2%; LDH release cytotoxicity (0.262469 µM): -1.53 ± 0.6%; LDH release cytotoxicity (0.83 µM): -0.536 ± 0.036%; LDH release cytotoxicity (2.62469 µM): -0.9 ± 0.47%; LDH release cytotoxicity (8.3 µM): -0.744 ± 0.035%; LDH release cytotoxicity (26.2469 µM): 8.37 ± 1.7%; LDH release cytotoxicity (83 µM): 93.9 ± 2.4%
11 | CCCCCCCCO [1-Octanol] | -0.769 ± 1% | -1.52 ± 0.36% | -0.614 ± 0.069% | -1.76 ± 0.5% | -2.15 ± 1.1% | -1.49 ± 0.68% | 1.06 ± 0.25% | 2.86 ± 2.5% | –
12 | COC(=O)c1ccc(I)cc1S(=O)(=O)NC(=O)Nc1nc(C)nc(OC)n1 [Iodosulfuron-methyl-sodium] | -1.49 ± 0.12% | -0.389 ± 1.6% | -1.21 ± 0.34% | -0.477 ± 0.51% | -0.16 ± 0.13% | 0.897 ± 0.24% | 0.0334 ± 0.38% | 2.49 ± 0.31% | –
13 | CCN(CC)C(=O)C(C)Oc1cccc2ccccc12 (centres undefined) [Napropamide] | -0.242 ± 0.62% | -0.853 ± 0.36% | -1.37 ± 0.22% | -0.226 ± 0.36% | -1.59 ± 1.4% | -0.144 ± 0.53% | 0.0468 ± 0.54% | 1.05 ± 1.2% | –
14 | Cc1nc(-c2ccc3c(c2)CCN(CCC2CCC(NC(=O)C=Cc4ccc(F)cc4)CC2)CC3)no1 (centres undefined) | 0.287 ± 2.3% | -0.381 ± 0.15% | -0.128 ± 1.3% | -0.7917 ± 0.0065% | -0.696 ± 0.47% | -0.292 ± 0.19% | -0.793 ± 0.21% | -0.791 ± 0.54% | –
15 | O=S1OCC2C(CO1)C1(Cl)C(Cl)=C(Cl)C2(Cl)C1(Cl)Cl (centres undefined) [Endosulfan] | 0.0956 ± 0.07% | -0.361 ± 0.27% | -0.482 ± 0.4% | -0.273 ± 0.024% | -0.151 ± 0.84% | 0.616 ± 0.33% | -0.612 ± 0.076% | 14.5 ± 0.024% | –
16 | CC(C)CC(C)(O)C#CC(C)(O)CC(C)C (centres undefined) [2,4,7,9-Tetramethyl-5-decyne-4,7-diol] | -0.689 ± 0.26% | -0.678 ± 0.45% | -0.883 ± 0.019% | -1.4 ± 0.25% | -0.76 ± 0.5% | -0.333 ± 0.27% | 0.979 ± 0.2% | 2.91 ± 0.27% | –
17 | N#CSCSC#N [Methylene bis(thiocyanate)] | 0.59 ± 0.13% | 0.474 ± 0.14% | -0.978 ± 0.4% | -0.877 ± 0.43% | -0.508 ± 0.021% | 0.525 ± 0.24% | 3.74 ± 0.86% | 66.1 ± 1.7% | –
18 | O=c1n(CC2CO2)c(=O)n(CC2CO2)c(=O)n1CC1CO1 (centres undefined) [Tris(2,3-epoxypropyl)isocyanurate] | 0.512 ± 0.2% | 0.218 ± 0.46% | 0.217 ± 0.89% | 0.322 ± 0.34% | -0.576 ± 0.33% | 0.383 ± 0.033% | 0.616 ± 0.68% | 1.86 ± 0.47% | –
